Measurements taken from patent publication US12409192B2, “Traditional Chinese medicine composition and use thereof” (JIANGSU KANION PHARMACEUTICAL CO., LTD, priority 2021, dated 2025).

Tested on: fever induced by dry yeast in rats
Test: Dry yeast-induced fever in rats
Assay type: in vivo
Details: composition 3.34 g crude drugs/kg, aspirin 0.20 g/kg, X ± SD, n = 10
Description: Male SD rats, weighing 180-220 g were fed adaptively for 1 week, with the environmental temperature maintained at 20-25° C. The rectal temperature of the rats was measured once daily at 10:00 am for two consecutive days to acclimate them to this procedure. The average of the two temperature measurements was taken as the baseline temperature. Rats with a temperature range of 37.0-38.6° C. and a fluctuation <0.5° C. were selected for the experiment. Each rat was subcutaneously injected with 10 ml/kg of a 20% suspension of dry yeast to induce fever. (Preparation method: 120 g of dry yeast was weighed and placed in a mortar, gradually adding distilled water to grind into a uniform suspension, and then adjusted to a volume of 600 mL, prepare this solution fresh.) Six hours after injecting the yeast suspension, the body temperature of the rats was measured. One hundred and seventy rats with a temperature increase ranging from 1.0 to 2.2 degrees Celsius were selected and randomly divided into 17 groups based on their temperatures. […] Each group was orally gavaged with the corresponding solvent or drug, and rectal temperature was measured at 1 h, 2 h, 3 h, 4 h, and 5 h after administration to calculate the temperature difference from baseline.
Male SD rats, weighing 180-220 g were fed adaptively for 1 week, with the environmental temperature maintained at 20-25° C. The rectal temperature of the rats was measured once daily at 10:00 am for two consecutive days to acclimate them to this procedure. The average of the two temperature measurements was taken as the baseline temperature. Rats with a temperature range of 37.0-38.6° C. and a fluctuation <0.5° C. were selected for the experiment. Each rat was subcutaneously injected with 10 ml/kg of a 20% suspension of dry yeast to induce fever. (Preparation method: 120 g of dry yeast was weighed and placed in a mortar, gradually adding distilled water to grind into a uniform suspension, and then adjusted to a volume of 600 mL, prepare this solution fresh.) Six hours after injecting the yeast suspension, the body temperature of the rats was measured. Ninety rats with a temperature increase ranging from 1.0 to 2.2 degrees Celsius were selected and randomly divided into 9 groups based on their temperatures. These groups were as follows: (1) Model group: administered distilled water, (2) 7 batches of traditional Chinese medicine groups P-V: dosage of 3.34 g crude drugs/kg, (3) Positive control group: administered aspirin suspension, dosage of 0.20 g/kg. Each group was orally gavaged with the corresponding solvent or drug, and rectal temperature was measured at 1 h, 2 h, 3 h, 4 h, and 5 h after administration to calculate the temperature difference from baseline.

In the case of `CC(=O)Oc1ccccc1C(=O)O` [Aspirin, aspirin], the “Temperature rise degrees after administration of medication (ΔT), 1 h” value (1 h after oral gavage) is reported as 0.40 ± 0.24 degrees, the “Temperature rise degrees after administration of medication (ΔT), 2 h” value (2 h after oral gavage) is reported as 0.34 ± 0.37 degrees and the “Temperature rise degrees after administration of medication (ΔT), 3 h” value (3 h after oral gavage) is reported as 0.27 ± 0.28 degrees. For the same compound, the “Temperature rise degrees after administration of medication (ΔT), 4 h” value (4 h after oral gavage) was 0.22 ± 0.23 degrees, the “Temperature rise degrees after administration of medication (ΔT), 5 h” value (5 h after oral gavage) was 0.22 ± 0.24 degrees and the “Degrees of temperature rise after administration of medication (ΔT), 1 h” value (verification study, 1 h after oral gavage) was 0.42 ± 0.34 Degrees. For the same compound, the “Degrees of temperature rise after administration of medication (ΔT), 2 h” value (verification study, 2 h after oral gavage) was 0.42 ± 0.31 Degrees, the “Degrees of temperature rise after administration of medication (ΔT), 3 h” value (verification study, 3 h after oral gavage) was 0.34 ± 0.31 Degrees and the “Degrees of temperature rise after administration of medication (ΔT), 4 h” value (verification study, 4 h after oral gavage) was 0.23 ± 0.30 Degrees. The “Degrees of temperature rise after administration of medication (ΔT), 5 h” value (verification study, 5 h after oral gavage) was 0.17 ± 0.13 Degrees.
